Series [1] in a line: Selectivity for PDE5 of human platelets over PDE6 of bovine retina.
Series [2] is described as follows: Selectivity for PDE5 of human platelets over PDE1 of bovine heart.
Series [3] in a line: Selectivity for PDE5 of human platelets over PDE2 of rat kidney.
Series [4] has as its target T1, cGMP-specific 3',5'-cyclic phosphodiesterase (Homo sapiens, UniProt O76074). Put plainly: Inhibition of PDE5 of human platelets.
Series [5] can be described thus: Selectivity for PDE5 of human platelets over PDE4 of rat kidney.
Series [6] in a line: Bioavailability was determined in dogs. The settings on record: dog, in vivo. It is filed as ADME, organism-based, Canis lupus familiaris.
Series [7] is described as follows: Bioavailability was determined in male rats. It is filed as ADME, organism-based. The settings on record: rat, in vivo.
The nature of series [8]: Half life was determined in male rats. The settings on record: rat, in vivo. In kind it is ADME, organism-based.
The nature of series [9]: Half life was determined in dogs. In kind it is ADME, organism-based, Canis lupus familiaris. The settings on record: dog, in vivo.
Series [10] is described as follows: Bioavailability was determined in male rats after a dose of 21 uM/kg. It is filed as ADME, organism-based. The following applies: rat, in vivo.
The nature of series [11]: Half life was determined in dogs after a dose of 23 uM/kg. In kind it is ADME, organism-based, Canis lupus familiaris. The following applies: dog, in vivo.
Series [12] can be described thus: Half life was determined in male rats after a dose of 21 uM/kg. It is filed as ADME, organism-based. The following applies: rat, in vivo.
Series [13] deals with T1, cGMP-specific 3',5'-cyclic phosphodiesterase. The series can be described thus: Relaxant effect on rabbit corpus cavernosal tissue strips. The following applies: target entry is the homologue from another species. In kind it is tissue-based, Oryctolagus cuniculus, Corpus cavernosum.
A short description of series [14]: Bioavailability was determined in dogs after a dose of 23 uM/kg. In kind it is ADME, organism-based, Canis lupus familiaris. The following applies: dog, in vivo.

By IC50 is commonly meant the midpoint of a concentration-inhibition curve. On to `CCn1ncc2c(NCc3ccc(OC)c(Cl)c3)c(C(=O)NCCCCCO)cnc21`, for which the IC50 ratio came to 35 in series [1], 2700 in [2], 5200 in [3] and 340 in series [5]. In [4], this compound showed an IC50 of 1.4 nM.
Take `CCn1ncc2c(N[C@@H](C)C3CCCCC3)c3cc(C#N)ccc3nc21`: the IC50 in series [4] was 1 nM. This lies in the single-digit nanomolar range.
Take `CCn1ncc2c(NCc3ccc(OC)c(Cl)c3)c(C(=O)NCCCN3CCCC3=O)cnc21`: the IC50 ratio came to 19 in [1], 2900 in [2], 3000 in [3] and 460 in series [5]. Besides, the half-maximal inhibitory concentration (IC50) in series [4] was 1.6 nM.
By bioavailability is commonly meant dose-corrected exposure relative to a reference, in per cent. High values mean much systemic uptake, low ones little systemic uptake. Broadly, the half-life is the time needed for the level to fall by half in the phase considered. A high value points to slow decline. For `CCCc1nn(C)c2c(=O)[nH]c(-c3cc(S(=O)(=O)N4CCN(C)CC4)ccc3OCC)nc12`, the values for the bioavailability in series [6] and in [7] were 54% and 15%, respectively. In addition, the half-life in [8] is 0.3 h; in series [9], 5.2 h.
Turning to `CCCCNc1c(C(=O)OCC)cnc2c1cnn2CC` [CARTAZOLATE], the IC50 ratio is 2 in [1], 43 in [2], 45 in [3] and 1 in series [5]. In series [4], this compound yielded an IC50 of 180 nM.
The compound `CCn1ncc2c(NCc3ccc(OC)c(Cl)c3)c(C(=O)O)cnc21` gave a concentration for half-maximal inhibition (IC50) in series [4] of 38 nM.
With `CCn1ncc2c(NCc3ccc(OC)c(Cl)c3)c(C(=O)NC[C@@H]3CCCO3)cnc21`, the IC50 ratio in series [1] was found to be 22; in series [2], 2500; in series [3], 8000; in [5], 760. In [4], this compound showed an IC50 of 1.8 nM.
As a reminder, the EC50 is the midpoint of the concentration-response curve. A lower EC50 goes with higher potency in that assay. On to `CCn1ncc2c(NCc3ccc(OC)c(Cl)c3)c(C(=O)NCc3ccncc3)cnc21`, for which the IC50 ratio in [1] worked out at 47; in series [2], 6400; in [3] it was 9200; in series [5], 600. Besides, the bioavailability was 33% in series [10] and 66% in series [14]. In addition, the values for the half-life in series [11] and in [12] were 2.3 h and 1.2 h, respectively. Further, the concentration giving a half-maximal response (EC50) in series [13] stood at 44 nM. Further, in series [4], the IC50 was found to be 0.8 nM.

(Values after ChEMBL document CHEMBL1134846, “Substituted pyrazolopyridines as potent and selective PDE5 inhibitors: potential agents for treatment of erectile dysfunction” (J Med Chem, 2001).)
